# In publication PMC4385830, “Group I Paks as therapeutic targets in NF2-deficient meningioma” (Oncotarget, 2015):
# What was measured:
# Assay in all cases: Kinase selectivity, Z'-LYTE
# Assay type in all cases: biochemical
# ACVR1B (ALK4) = biological target: T1, ACVR1B (ALK4) (Homo sapiens, UniProt P36896)
# T1 construct: purchased Invitrogen (Life Technologies) SelectScreen Z'-LYTE
# T1 sequence (P36896 24-505): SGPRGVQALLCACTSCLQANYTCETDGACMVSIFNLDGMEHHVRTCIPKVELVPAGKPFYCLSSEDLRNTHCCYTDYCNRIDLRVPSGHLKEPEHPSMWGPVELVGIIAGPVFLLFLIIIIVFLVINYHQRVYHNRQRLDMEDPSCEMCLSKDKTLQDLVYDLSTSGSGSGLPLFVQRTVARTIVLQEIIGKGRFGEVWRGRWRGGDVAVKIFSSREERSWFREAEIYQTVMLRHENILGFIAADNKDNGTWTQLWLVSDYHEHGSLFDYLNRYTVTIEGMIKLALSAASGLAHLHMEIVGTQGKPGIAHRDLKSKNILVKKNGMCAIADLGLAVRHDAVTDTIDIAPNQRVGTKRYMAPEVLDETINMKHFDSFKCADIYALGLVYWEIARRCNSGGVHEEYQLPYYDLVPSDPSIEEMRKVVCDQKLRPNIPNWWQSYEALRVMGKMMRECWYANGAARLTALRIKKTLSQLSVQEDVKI
# In short: (§1)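 Fluorescence read-out reflects differential proteolytic cleavage of phosphorylated versus non-phosphorylated peptide in a coupled-enzyme format. Reactions use recombinant enzymes with kinase-specific optimized mixtures.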
# CDK7/cyclin H/MNAT1 = biological target: T2, CDK7/cyclin H/MNAT1 (Homo sapiens, UniProt P50613)
# T2 construct: purchased Invitrogen (Life Technologies) SelectScreen Z'-LYTE
# T2 sequence (P50613 whole entry): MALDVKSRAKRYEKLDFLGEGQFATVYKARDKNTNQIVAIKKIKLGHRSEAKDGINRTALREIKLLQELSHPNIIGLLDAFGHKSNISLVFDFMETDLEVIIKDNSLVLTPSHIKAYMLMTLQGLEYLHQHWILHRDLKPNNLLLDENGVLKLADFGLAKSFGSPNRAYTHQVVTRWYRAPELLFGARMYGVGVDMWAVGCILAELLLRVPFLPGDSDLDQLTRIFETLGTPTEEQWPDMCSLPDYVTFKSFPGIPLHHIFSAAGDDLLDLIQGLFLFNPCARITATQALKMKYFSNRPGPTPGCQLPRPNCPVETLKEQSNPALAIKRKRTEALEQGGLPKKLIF
# T2 sequence (P51946 whole entry partner): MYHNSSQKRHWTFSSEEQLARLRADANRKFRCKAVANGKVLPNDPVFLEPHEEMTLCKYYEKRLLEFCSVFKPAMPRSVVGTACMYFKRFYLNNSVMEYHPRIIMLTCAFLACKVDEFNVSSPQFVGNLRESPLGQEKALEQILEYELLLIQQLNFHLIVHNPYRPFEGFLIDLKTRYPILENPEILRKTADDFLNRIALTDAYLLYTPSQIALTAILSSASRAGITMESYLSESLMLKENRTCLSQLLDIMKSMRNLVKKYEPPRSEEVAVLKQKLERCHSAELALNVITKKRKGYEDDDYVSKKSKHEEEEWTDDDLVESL
# T2 sequence (P51948 whole entry partner): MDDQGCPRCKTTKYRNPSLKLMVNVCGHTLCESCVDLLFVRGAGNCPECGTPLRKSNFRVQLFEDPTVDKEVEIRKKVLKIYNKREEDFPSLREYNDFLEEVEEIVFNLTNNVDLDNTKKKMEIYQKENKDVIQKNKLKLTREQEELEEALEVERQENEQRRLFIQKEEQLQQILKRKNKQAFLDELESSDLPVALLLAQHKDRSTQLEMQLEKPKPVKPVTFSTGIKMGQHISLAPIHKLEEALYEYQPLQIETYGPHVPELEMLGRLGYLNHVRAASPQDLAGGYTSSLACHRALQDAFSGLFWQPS
# In short: as §1
# CHEK1 (CHK1) = biological target: T3, CHEK1 (CHK1) (Homo sapiens, UniProt O14757)
# T3 construct: purchased Invitrogen (Life Technologies) SelectScreen Z'-LYTE
# T3 sequence (O14757 1-476): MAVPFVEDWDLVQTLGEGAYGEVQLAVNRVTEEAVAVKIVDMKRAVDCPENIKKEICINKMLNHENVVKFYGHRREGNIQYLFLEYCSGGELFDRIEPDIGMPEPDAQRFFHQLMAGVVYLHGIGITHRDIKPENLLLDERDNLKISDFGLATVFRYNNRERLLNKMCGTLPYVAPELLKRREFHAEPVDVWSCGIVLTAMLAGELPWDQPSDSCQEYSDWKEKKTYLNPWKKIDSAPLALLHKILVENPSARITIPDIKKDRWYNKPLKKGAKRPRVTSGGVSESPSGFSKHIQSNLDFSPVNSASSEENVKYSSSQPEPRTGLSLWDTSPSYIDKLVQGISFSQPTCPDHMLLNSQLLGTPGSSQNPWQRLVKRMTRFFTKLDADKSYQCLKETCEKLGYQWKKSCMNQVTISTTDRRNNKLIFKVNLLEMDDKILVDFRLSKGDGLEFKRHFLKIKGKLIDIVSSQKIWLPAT
# In short: as §1
# CSF1R (FMS) = biological target: T4, CSF1R (FMS) (Homo sapiens, UniProt P07333)
# T4 construct: purchased Invitrogen (Life Technologies) SelectScreen Z'-LYTE
# T4 sequence (P07333 20-972): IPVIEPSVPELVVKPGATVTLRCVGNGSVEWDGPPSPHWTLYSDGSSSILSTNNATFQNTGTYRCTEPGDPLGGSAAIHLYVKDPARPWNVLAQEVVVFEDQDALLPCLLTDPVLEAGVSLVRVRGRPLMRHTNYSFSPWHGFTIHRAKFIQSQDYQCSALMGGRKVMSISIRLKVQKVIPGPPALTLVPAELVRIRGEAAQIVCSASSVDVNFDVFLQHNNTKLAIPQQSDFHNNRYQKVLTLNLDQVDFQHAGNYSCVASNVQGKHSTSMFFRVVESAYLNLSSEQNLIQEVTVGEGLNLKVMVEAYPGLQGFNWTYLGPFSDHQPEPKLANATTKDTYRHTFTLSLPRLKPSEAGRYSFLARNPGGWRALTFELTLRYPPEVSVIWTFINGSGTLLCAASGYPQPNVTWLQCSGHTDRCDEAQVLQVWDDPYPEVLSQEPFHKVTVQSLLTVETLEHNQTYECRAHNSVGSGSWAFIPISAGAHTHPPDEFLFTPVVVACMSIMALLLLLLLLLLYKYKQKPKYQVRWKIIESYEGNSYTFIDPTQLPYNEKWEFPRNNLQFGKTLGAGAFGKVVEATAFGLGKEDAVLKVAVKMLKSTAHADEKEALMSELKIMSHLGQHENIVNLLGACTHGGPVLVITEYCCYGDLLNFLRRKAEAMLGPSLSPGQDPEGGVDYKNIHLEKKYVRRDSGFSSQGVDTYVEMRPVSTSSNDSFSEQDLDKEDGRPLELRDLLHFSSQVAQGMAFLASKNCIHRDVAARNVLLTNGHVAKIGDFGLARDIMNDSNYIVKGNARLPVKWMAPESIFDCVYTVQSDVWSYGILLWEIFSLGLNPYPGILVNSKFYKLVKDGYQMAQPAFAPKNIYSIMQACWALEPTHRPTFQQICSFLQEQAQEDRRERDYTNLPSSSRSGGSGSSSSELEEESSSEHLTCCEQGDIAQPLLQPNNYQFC
# In short: as §1
# DYRK1A = biological target: T5, DYRK1A (Homo sapiens, UniProt Q13627)
# T5 construct: purchased Invitrogen (Life Technologies) SelectScreen Z'-LYTE
# In short: as §1
# EPHA2 = biological target: T6, EPHA2 (Homo sapiens, UniProt P29317)
# T6 construct: purchased Invitrogen (Life Technologies) SelectScreen Z'-LYTE
# T6 sequence (P29317 24-976): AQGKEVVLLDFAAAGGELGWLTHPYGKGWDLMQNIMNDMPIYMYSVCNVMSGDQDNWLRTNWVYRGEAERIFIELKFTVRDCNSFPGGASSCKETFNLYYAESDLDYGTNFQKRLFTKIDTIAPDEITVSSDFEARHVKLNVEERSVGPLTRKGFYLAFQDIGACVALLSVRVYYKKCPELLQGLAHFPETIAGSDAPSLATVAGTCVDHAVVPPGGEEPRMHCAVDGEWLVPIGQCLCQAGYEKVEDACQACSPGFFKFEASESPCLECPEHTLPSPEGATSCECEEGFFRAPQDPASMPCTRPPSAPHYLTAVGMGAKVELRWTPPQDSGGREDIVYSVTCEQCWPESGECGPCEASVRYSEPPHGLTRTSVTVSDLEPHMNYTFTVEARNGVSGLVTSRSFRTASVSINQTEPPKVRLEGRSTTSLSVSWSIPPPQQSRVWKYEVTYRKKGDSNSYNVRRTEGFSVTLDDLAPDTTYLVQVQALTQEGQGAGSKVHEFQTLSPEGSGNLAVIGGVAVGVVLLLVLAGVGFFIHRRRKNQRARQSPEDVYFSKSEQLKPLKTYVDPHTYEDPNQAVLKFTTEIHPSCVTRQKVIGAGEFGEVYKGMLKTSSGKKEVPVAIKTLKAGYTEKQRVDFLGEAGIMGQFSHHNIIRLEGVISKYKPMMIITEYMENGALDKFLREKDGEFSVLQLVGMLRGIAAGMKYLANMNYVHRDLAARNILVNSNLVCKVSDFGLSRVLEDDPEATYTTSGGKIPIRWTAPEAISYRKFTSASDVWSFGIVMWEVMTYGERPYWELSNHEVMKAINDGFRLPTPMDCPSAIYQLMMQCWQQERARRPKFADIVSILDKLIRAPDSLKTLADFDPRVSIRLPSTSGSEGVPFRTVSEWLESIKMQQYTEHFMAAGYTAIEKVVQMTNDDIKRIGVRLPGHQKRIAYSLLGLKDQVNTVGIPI
# In short: as §1
# ERBB4 (HER4) = biological target: T7, ERBB4 (HER4) (Homo sapiens, UniProt Q15303)
# T7 construct: purchased Invitrogen (Life Technologies) SelectScreen Z'-LYTE
# In short: as §1
# FGFR3 = biological target: T8, FGFR3 (Homo sapiens, UniProt P22607)
# T8 construct: purchased Invitrogen (Life Technologies) SelectScreen Z'-LYTE
# In short: as §1
# IGF1R = biological target: T9, IGF1R (Homo sapiens, UniProt P08069)
# T9 construct: purchased Invitrogen (Life Technologies) SelectScreen Z'-LYTE
# In short: as §1
# KIT = biological target: T10, KIT (Homo sapiens, UniProt P10721)
# T10 construct: purchased Invitrogen (Life Technologies) SelectScreen Z'-LYTE
# In short: as §1
# LYNA = biological target: T11, LYNA (Homo sapiens, UniProt P07948)
# T11 construct: purchased Invitrogen (Life Technologies) SelectScreen Z'-LYTE
# In short: as §1
# MAP2K2 (MEK2) = biological target: T12, MAP2K2 (MEK2) (Homo sapiens, UniProt P36507)
# T12 construct: purchased Invitrogen (Life Technologies) SelectScreen Z'-LYTE
# T12 sequence (P36507 whole entry): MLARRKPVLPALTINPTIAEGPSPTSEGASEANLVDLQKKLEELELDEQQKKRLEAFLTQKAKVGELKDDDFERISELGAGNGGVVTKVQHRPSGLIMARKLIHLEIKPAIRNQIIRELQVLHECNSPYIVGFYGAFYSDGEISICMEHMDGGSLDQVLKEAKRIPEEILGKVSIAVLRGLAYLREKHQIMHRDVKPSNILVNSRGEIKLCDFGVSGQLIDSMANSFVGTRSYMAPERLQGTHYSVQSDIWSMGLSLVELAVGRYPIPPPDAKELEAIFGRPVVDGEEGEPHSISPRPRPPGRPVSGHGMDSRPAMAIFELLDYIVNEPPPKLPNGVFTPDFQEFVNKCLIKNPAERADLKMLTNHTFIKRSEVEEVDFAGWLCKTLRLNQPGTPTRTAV
# In short: as §1
# MAPK3 (ERK1) = biological target: T13, MAPK3 (ERK1) (Homo sapiens, UniProt P27361)
# T13 construct: purchased Invitrogen (Life Technologies) SelectScreen Z'-LYTE
# In short: as §1
# MAPK9 (JNK2) = biological target: T14, MAPK9 (JNK2) (Homo sapiens, UniProt P45984)
# T14 construct: purchased Invitrogen (Life Technologies) SelectScreen Z'-LYTE
# In short: as §1
# MST1R (RON) = biological target: T15, MST1R (RON) (Homo sapiens, UniProt Q04912)
# T15 construct: purchased Invitrogen (Life Technologies) SelectScreen Z'-LYTE
# In short: as §1
# PAK3 = biological target: T16, PAK3 (Homo sapiens, UniProt O75914)
# T16 construct: purchased Invitrogen (Life Technologies) SelectScreen Z'-LYTE
# T16 sequence (O75914 whole entry): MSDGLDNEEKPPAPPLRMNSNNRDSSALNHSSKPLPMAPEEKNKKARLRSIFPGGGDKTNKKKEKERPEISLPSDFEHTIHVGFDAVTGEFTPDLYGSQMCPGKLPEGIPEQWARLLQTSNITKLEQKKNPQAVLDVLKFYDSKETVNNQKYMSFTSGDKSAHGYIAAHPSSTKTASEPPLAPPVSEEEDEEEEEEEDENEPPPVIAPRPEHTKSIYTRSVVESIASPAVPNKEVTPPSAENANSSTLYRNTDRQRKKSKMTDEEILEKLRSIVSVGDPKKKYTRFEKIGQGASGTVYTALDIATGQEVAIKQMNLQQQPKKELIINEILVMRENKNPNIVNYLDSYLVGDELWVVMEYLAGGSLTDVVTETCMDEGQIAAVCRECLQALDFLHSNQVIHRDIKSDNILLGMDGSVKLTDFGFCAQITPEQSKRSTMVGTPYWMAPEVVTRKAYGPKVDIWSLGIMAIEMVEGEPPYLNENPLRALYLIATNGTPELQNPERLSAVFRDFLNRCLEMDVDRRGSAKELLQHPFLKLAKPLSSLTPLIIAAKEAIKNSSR
# In short: as §1
# RAF1 (cRAF) Y340D Y341D = biological target: T17, RAF1 (cRAF) Y340D Y341D (Homo sapiens, UniProt P04049, Y340D/Y341D)
# T17 construct: purchased Invitrogen (Life Technologies) SelectScreen Z'-LYTE
# In short: as §1
# ROCK2 = biological target: T18, ROCK2 (Homo sapiens, UniProt O75116)
# T18 construct: purchased Invitrogen (Life Technologies) SelectScreen Z'-LYTE
# In short: as §1
# TYK2 = biological target: T19, TYK2 (Homo sapiens, UniProt P29597)
# T19 construct: purchased Invitrogen (Life Technologies) SelectScreen Z'-LYTE
# T19 sequence (P29597 whole entry): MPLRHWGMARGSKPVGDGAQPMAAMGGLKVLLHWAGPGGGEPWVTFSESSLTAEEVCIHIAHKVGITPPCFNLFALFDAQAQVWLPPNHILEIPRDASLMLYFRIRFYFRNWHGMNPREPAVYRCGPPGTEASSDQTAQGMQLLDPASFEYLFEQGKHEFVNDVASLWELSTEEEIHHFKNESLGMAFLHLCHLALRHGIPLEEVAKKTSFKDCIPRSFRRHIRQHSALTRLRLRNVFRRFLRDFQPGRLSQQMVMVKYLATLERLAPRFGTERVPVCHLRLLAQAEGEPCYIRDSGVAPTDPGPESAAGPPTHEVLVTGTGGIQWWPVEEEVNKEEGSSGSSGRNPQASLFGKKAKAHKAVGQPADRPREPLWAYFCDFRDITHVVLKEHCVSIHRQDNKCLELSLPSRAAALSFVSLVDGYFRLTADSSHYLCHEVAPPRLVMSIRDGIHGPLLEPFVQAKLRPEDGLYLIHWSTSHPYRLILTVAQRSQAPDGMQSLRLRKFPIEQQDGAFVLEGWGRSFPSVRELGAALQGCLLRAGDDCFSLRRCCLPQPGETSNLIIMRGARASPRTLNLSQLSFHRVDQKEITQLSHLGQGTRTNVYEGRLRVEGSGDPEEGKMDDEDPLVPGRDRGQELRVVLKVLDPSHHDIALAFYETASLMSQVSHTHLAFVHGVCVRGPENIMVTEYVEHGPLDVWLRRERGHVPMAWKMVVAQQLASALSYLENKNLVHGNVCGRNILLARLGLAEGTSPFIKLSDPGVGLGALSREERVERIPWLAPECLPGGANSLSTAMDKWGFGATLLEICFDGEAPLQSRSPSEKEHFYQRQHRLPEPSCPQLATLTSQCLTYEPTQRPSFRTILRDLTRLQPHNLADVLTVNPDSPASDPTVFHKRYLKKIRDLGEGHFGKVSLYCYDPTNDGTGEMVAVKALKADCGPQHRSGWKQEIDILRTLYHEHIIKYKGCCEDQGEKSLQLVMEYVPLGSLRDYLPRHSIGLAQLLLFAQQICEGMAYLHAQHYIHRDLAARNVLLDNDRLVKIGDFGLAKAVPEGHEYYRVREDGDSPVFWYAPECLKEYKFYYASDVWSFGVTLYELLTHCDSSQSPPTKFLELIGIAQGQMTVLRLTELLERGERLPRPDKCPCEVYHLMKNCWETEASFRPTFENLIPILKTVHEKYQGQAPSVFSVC
# In short: as §1
# ZAP70 = biological target: T20, ZAP70 (Homo sapiens, UniProt P43403)
# T20 construct: purchased Invitrogen (Life Technologies) SelectScreen Z'-LYTE
# T20 sequence (P43403 1-619): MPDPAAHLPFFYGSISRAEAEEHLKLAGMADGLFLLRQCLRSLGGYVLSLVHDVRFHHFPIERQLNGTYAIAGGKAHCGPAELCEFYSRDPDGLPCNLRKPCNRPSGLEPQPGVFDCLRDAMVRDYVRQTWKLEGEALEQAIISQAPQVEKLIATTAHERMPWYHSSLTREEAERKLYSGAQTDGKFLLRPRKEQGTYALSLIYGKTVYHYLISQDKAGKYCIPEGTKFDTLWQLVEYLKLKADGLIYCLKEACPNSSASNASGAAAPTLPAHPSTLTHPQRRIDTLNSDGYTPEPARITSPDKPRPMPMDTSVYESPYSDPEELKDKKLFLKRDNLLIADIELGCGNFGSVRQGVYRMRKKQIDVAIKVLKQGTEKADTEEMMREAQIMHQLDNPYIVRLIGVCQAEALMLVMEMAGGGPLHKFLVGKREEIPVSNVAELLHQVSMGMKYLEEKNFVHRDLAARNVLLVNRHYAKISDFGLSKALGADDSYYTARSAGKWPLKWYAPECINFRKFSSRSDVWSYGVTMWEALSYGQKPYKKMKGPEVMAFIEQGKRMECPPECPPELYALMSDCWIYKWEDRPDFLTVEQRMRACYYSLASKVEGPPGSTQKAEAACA
# In short: as §1
% inhibition of activity (ACVR1B (ALK4)) [%],% inhibition of activity (CDK7/cyclin H/MNAT1) [%],% inhibition of activity (CHEK1 (CHK1)) [%],% inhibition of activity (CSF1R (FMS)) [%],% inhibition of activity (DYRK1A) [%],% inhibition of activity (EPHA2) [%],% inhibition of activity (ERBB4 (HER4)) [%],% inhibition of activity (FGFR3) [%],% inhibition of activity (IGF1R) [%],% inhibition of activity (KIT) [%],% inhibition of activity (LYNA) [%],% inhibition of activity (MAP2K2 (MEK2)) [%],% inhibition of activity (MAPK3 (ERK1)) [%],% inhibition of activity (MAPK9 (JNK2)) [%],% inhibition of activity (MST1R (RON)) [%],% inhibition of activity (PAK3) [%],% inhibition of activity (RAF1 (cRAF) Y340D Y341D) [%],% inhibition of activity (ROCK2) [%],% inhibition of activity (TYK2) [%],% inhibition of activity (ZAP70) [%],SMILES
0,−3,−14,41,5,18,0,0,7,32,39,15,4,44,55,106,11,7,6,3,CCn1c(=O)c(-c2ccc(-c3cncc(C)n3)cc2Cl)cc2cnc(NCCC3CCN(C)CC3)nc21 [Frax1036]
1,96,91,20,6,18,2,31,10,7,76,20,18,0,8,100,26,10,14,10,"Cc1nc(Nc2[nH]nc3c2CN(C(=O)N[C@H](CN(C)C)c2ccccc2)C3(C)C)c2sccc2n1 [PF3758309, reference compound]"

SMILES,% inhibition of activity (ACVR1B (ALK4)) [%],% inhibition of activity (CDK7/cyclin H/MNAT1) [%],% inhibition of activity (CHEK1 (CHK1)) [%],% inhibition of activity (CSF1R (FMS)) [%],% inhibition of activity (DYRK1A) [%],% inhibition of activity (EPHA2) [%],% inhibition of activity (ERBB4 (HER4)) [%],% inhibition of activity (FGFR3) [%],% inhibition of activity (IGF1R) [%],% inhibition of activity (KIT) [%],% inhibition of activity (LYNA) [%],% inhibition of activity (MAP2K2 (MEK2)) [%],% inhibition of activity (MAPK3 (ERK1)) [%],% inhibition of activity (MAPK9 (JNK2)) [%],% inhibition of activity (MST1R (RON)) [%],% inhibition of activity (PAK3) [%],% inhibition of activity (RAF1 (cRAF) Y340D Y341D) [%],% inhibition of activity (ROCK2) [%],% inhibition of activity (TYK2) [%],% inhibition of activity (ZAP70) [%]
CCn1c(=O)c(-c2ccc(-c3noc(C)n3)cc2Cl)cc2cnc(Nc3ccc(C4CCN(C)CC4)cc3)nc21 [Frax716],−9,2,−2,97,3,68,77,35,23,77,88,79,8,20,40,90,74,4,54,8
